According to ChEMBL document CHEMBL1201862, “PubChem BioAssay data set” (2004):
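A five-concentration, 48-hour dose response in 96-well plates underlies each endpoint, interpolated linearly between surrounding concentrations. Here, GI50 denotes the concentration required for 50% inhibition of growth.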 Calls of active or inactive are those of the source. No stated cut-off is given here; in the data, active = GI50 up to about 1.1 µM and inactive = higher.

Legend:
Assay in all cases: NCI tumour cell line growth inhibition, 48 h
[1] = test system: MDA-N
[2] = test system: U-251
[3] = test system: 786-0
[4] = test system: CAKI-1
[5] = test system: MOLT-4
[6] = test system: NCI-H226
[7] = test system: NCI-H522
[8] = test system: NCI-H460
[9] = test system: K562
[10] = test system: CCRF-CEM
[11] = test system: M14
[12] = test system: MCF7
[13] = test system: SF-295
[14] = test system: EKVX
[15] = test system: MDA-MB-231
[16] = test system: HCT-15
[17] = test system: SW-620
[18] = test system: TK-10
[19] = test system: HL-60
[20] = test system: LOX IMVI
[21] = test system: UACC-257
[22] = test system: HCT-116
[23] = test system: Hs-578T
[24] = test system: OVCAR-8
[25] = test system: SN12C
[26] = test system: SNB-75
[27] = test system: HCC 2998
[28] = test system: Malme-3M
[29] = test system: IGROV-1
[30] = test system: SNB-19
[31] = test system: SK-OV-3
[32] = test system: DU-145
[33] = test system: SK-MEL-2
[34] = test system: SF-539
[35] = test system: COLO 205
[36] = test system: NCI/ADR-RES
[37] = test system: SR
[38] = test system: MDA-MB-435
[39] = test system: A498
[40] = test system: KM12
[41] = test system: HT-29
[42] = test system: OVCAR-3
[43] = test system: RXF 393
[44] = test system: OVCAR-5
[45] = test system: HOP-62
[46] = test system: ACHN
[47] = test system: NCI-H23
[48] = test system: SK-MEL-5
[49] = test system: UACC-62
[50] = test system: SF-268
[51] = test system: SK-MEL-28
[52] = test system: A549
[53] = test system: OVCAR-4
[54] = test system: HOP-92
[55] = test system: PC-3
[56] = test system: T47D
[57] = test system: RPMI-8226
[58] = test system: UO-31

With `COc1cc2c(cc1OC)C1c3ccccc3CCN1CC2` (stereo not drawn) the GI50 [1] was 41100 nM (inactive), the GI50 [2] was 95300 nM (inactive) and the GI50 [3] was > 100000 nM (inactive). The GI50 [4] was > 100000 nM (inactive), the GI50 [5] was 78300 nM (inactive) and the GI50 [6] was 41200 nM (inactive). For the same compound, the GI50 [7] was > 100000 nM (inactive), the GI50 [8] was 94400 nM (inactive) and the GI50 [9] was 57700 nM (inactive). The GI50 [10] was > 100000 nM (inactive), the GI50 [11] was 45000 nM (inactive) and the GI50 [12] was > 100000 nM (inactive). The GI50 [13] was 82600 nM (inactive), the GI50 [14] was > 100000 nM (inactive) and the GI50 [15] was 68700 nM (inactive). The GI50 [16] was > 100000 nM, the GI50 [17] was 63200 nM (inactive) and the GI50 [18] was > 100000 nM (inactive). The GI50 [19] was 30400 nM (inactive), the GI50 [20] was 48600 nM (inactive) and the GI50 [21] was > 100000 nM (inactive). The GI50 [22] was 36800 nM (inactive), the GI50 [23] was 58200 nM (inactive) and the GI50 [24] was > 100000 nM (inactive). The GI50 [25] was 62500 nM (inactive), the GI50 [26] was 44600 nM (inactive) and the GI50 [27] was 43600 nM (inactive). The GI50 [28] was > 100000 nM (inactive), the GI50 [29] was 53300 nM (inactive) and the GI50 [30] was > 100000 nM (inactive). For the same compound, the GI50 [31] was > 100000 nM (inactive), the GI50 [32] was > 100000 nM (inactive) and the GI50 [33] was > 100000 nM (inactive). For the same compound, the GI50 [34] was 31100 nM (inactive), the GI50 [35] was 58700 nM (inactive) and the GI50 [36] was 95700 nM (inactive). The GI50 [37] was > 100000 nM (inactive), the GI50 [38] was 37200 nM (inactive) and the GI50 [39] was > 100000 nM (inactive). For the same compound, the GI50 [40] was > 100000 nM (inactive), the GI50 [41] was 28500 nM (inactive) and the GI50 [42] was > 100000 nM (inactive). The GI50 [43] was > 100000 nM (inactive), the GI50 [44] was > 100000 nM (inactive) and the GI50 [45] was 70800 nM (inactive). For the same compound, the GI50 [46] was > 100000 nM (inactive), the GI50 [47] was 63500 nM (inactive) and the GI50 [48] was 81100 nM (inactive). For the same compound, the GI50 [49] was 58100 nM (inactive), the GI50 [50] was > 100000 nM (inactive) and the GI50 [51] was 79300 nM (inactive). For the same compound, the GI50 [52] was > 100000 nM (inactive), the GI50 [53] was > 100000 nM (inactive) and the GI50 [54] was 59300 nM (inactive). For the same compound, the GI50 [55] was > 100000 nM (inactive) and the GI50 [56] was 75900 nM (inactive).
For `COc1ccc(C[C@H]2NC(=O)/C=C/C[C@@H]([C@H](C)[C@H]3O[C@@H]3c3ccccc3)OC(=O)[C@H](CC(C)C)OC(=O)[C@H](C)CNC2=O)cc1`, the GI50 [1] was 0.00531 nM (active), the GI50 [2] was 0.0286 nM (active) and the GI50 [3] was 0.0125 nM (active). For the same compound, the GI50 [4] was 0.0125 nM (active), the GI50 [5] was 0.0285 nM (active) and the GI50 [6] was > 0.0441 nM (active). For the same compound, the GI50 [7] was 0.0105 nM (active), the GI50 [8] was 0.0313 nM (active) and the GI50 [9] was 0.00927 nM (active). The GI50 [10] was 0.0175 nM (active), the GI50 [57] was 0.0285 nM (active) and the GI50 [11] was 0.0172 nM (active). For the same compound, the GI50 [12] was > 0.0895 nM (active), the GI50 [13] was 0.0107 nM (active) and the GI50 [14] was 0.0377 nM (active). For the same compound, the GI50 [15] was 0.0449 nM (active), the GI50 [16] was 0.0428 nM and the GI50 [17] was 0.014 nM (active). The GI50 [18] was > 0.1 nM (active), the GI50 [19] was 0.0155 nM (active) and the GI50 [20] was 0.0174 nM (active). For the same compound, the GI50 [21] was > 0.0589 nM (active), the GI50 [22] was 0.0157 nM (active) and the GI50 [23] was 0.0101 nM (active). The GI50 [24] was 0.0169 nM (active), the GI50 [25] was 0.0394 nM (active) and the GI50 [26] was 0.0147 nM (active). For the same compound, the GI50 [27] was 0.0445 nM (active), the GI50 [28] was 0.0219 nM (active) and the GI50 [29] was 0.0324 nM (active). For the same compound, the GI50 [30] was 0.0247 nM (active), the GI50 [31] was 0.0206 nM (active) and the GI50 [32] was 0.0296 nM (active). For the same compound, the GI50 [33] was > 0.0442 nM (active), the GI50 [34] was 0.0194 nM (active) and the GI50 [35] was 0.0199 nM (active). The GI50 [36] was > 0.1 nM (active), the GI50 [37] was 0.00336 nM (active) and the GI50 [38] was 0.00337 nM (active). For the same compound, the GI50 [39] was 0.0215 nM (active), the GI50 [40] was 0.0393 nM (active) and the GI50 [41] was 0.00818 nM (active). The GI50 [42] was 0.0158 nM (active), the GI50 [43] was 0.00927 nM (active) and the GI50 [44] was 0.0394 nM (active). For the same compound, the GI50 [45] was 0.0247 nM (active), the GI50 [46] was 0.0593 nM (active) and the GI50 [47] was 0.0254 nM (active). For the same compound, the GI50 [48] was 0.00753 nM (active), the GI50 [49] was 0.00671 nM (active) and the GI50 [50] was 0.0713 nM (active). For the same compound, the GI50 [58] was 0.0471 nM (active), the GI50 [51] was 0.0483 nM (active) and the GI50 [52] was 0.0316 nM (active). For the same compound, the GI50 [53] was > 0.1 nM (active), the GI50 [55] was 0.0209 nM (active) and the GI50 [56] was > 0.1 nM (active).
